{"source": "patent US20150056166A1", "about": "“FLAVONE DERIVATIVES AND THEIR USE” (Twincore GmbH, priority 2012, published 2015)", "key": {"Huh7.5 F-Luc cells": {"tested_on": "Huh7.5 F-Luc cells", "experiment": "Cytotoxicity of chloroquine (FIG. 11A)", "settings": "at the used concentrations"}, "JcR-2a virus": {"tested_on": "JcR-2a virus", "experiment": "Chloroquine alone and with BJ486K, JcR-2a virus in Huh7.5 F-Luc cells", "format": "cell-based, HCV", "settings": "chloroquine alone", "method": "Result from one experiment with triplicate measurements is given. (B) Combined effects of CQ on BJ486K activity (and vice versa) were analyzed by inoculation of Huh7.5 F-Luc cells with JcR-2a virus in the presence of given drugs and determination of luciferase activity 72 h later. Results from 3 independent experiments are given."}, "[1]": {"tested_on": "Luc-Jc1/E2/G451R reporter viruses", "experiment": "Resistance test, Luc-Jc1 versus Luc-Jc1/E2/G451R reporter virus", "format": "cell-based, HCV", "settings": "Huh7-Lunet/CD81 cells, luciferase 72 h", "method": "FIG. 4: BJ486K is not affected by viral resistance towards a SR-BI-targeting compound, inhibits HCV of different genotypes and prevents infection of primary human hepatocytes Huh7-Lunet/CD81 cells were inoculated with Luc-Jc1 or Luc-Jc1/E2/G451R reporter viruses in the presence of increasing doses of (A) ITX 5061 or (B) BJ486K. Cells were lysed 72 h later. Luciferase activity was determined and is expressed relative to control infections conducted in the presence of DMSO. Mean values of four independent experiments each with quadruplicate measurements including the standard deviation are shown. (C) Huh7-Lunet/CD81 cells were inoculated with genotype 1a, 1b, 2b, 3a, 4a, 5a and 6a chimeric reporter viruses in the presence of increasing doses of BJ486K. Luciferase activity was determined 72 h later and is expressed relative to infections in the presence of DMSO. Mean values of three independent experiments, each with triplicate measurements, are given. (D) Primary human hepatocytes were inoculated with Con1/C3 in the presence of DMSO or increasing concentrations of BJ486K. The inhibition of HCV infection was assessed by focus-formation assay and is expressed as % inhibition relative to DMSO-treated cells. Mean values of duplicate measurements including the error range are given. […]"}, "[2]": {"experiment": "UV-visible spectrophotometric titration by MgCl2", "format": "physicochemical", "settings": "high excess of Mg(II); CH3CN/H2O (1:1 by volume)", "method": "FIG. 17: (A) UV-visible spectrophotometric titration of BJ486K (newly re-prepared as XM148) by MgCl2 and (B) absorption electronic spectra of the flavone BJ486K and its magnesium(II) complex BJ486K-MgCl2. Solvent: CH3CN/H2O (1:1 by volume); T=25.0° C.; l=1 cm; [BJ486K]tot=7.63×10^−5 M; (1) [MgCl2]tot/[BJ486K]tot=0; (2) [MgCl2]tot/[BJ486K]tot=185.8. To ensure solubilisation of both the flavone BJ486K (newly re-prepared as XM148) and MgCl2, a mixed solvent made of 50% of water and 50% of CH3CN was used. A stock solution of XM148 ([…] in 10 mL of argon saturated CH3CN, [XM148]tot=9.54×10^−3 M) was prepared. 160 μL of the flavone stock solution in CH3CN was diluted in 1 mL and 840 μL of Ar-saturated water and CH3CN, respectively. The absorption spectrophotometric titration (200-800 nm) was carried out by successive addition of aliquots (10 μL) of a stock solution of MgCl2 freshly prepared in water (337.6 mg in 5 mL, [MgCl2]tot=7.09×10^−3 M). […]\nFIG. 18: (A) UV-visible spectrophotometric titration of XM131 (final precursor B, Scheme 2) by MgCl2. […] Absorption spectra (200-800 nm) was recorded after each addition of aliquots (10 μL) of a stock solution of MgCl2 freshly prepared in water (337.6 mg in 5 mL, [MgCl2]tot=7.09×10^−3 M). […]"}, "Jc1": {"tested_on": "Jc1", "experiment": "HCV virus assembly/release, intra- and extracellular core protein after Jc1 RNA transfection", "format": "cell-based", "settings": "48 h after transfection, drugs added 4 h after transfection", "method": "(A) Huh7-Lunet/CD81 cells were transfected with the subgenomic luciferase replicon depicted at the top. Drugs were added 4 h post transfection and the level of HCV RNA translation and RNA replication was quantified by luciferase assays 72 h post transfection. Mean values of three independent experiments each with quadruplicate measurements including the standard deviation are shown. (B) Cells were transfected with the Jc1 chimera depicted above and drugs were added 4 h later. HCV virus release in the presence or absence of given compounds was determined by quantification of intracellular and extracellular core protein levels using a core-specific ELISA. Mean values of three independent experiments with single measurements including the error range are given. (C) Huh7-Lunet/CD81 cells were inoculated with Luc-Jc1 reporter viruses prepared in the absence of drugs. BJ486K was added to the cells only prior to inoculation (black), only during inoculation (grey) or selectively directly after inoculation (white) as schematically depicted at the top. Infectivity was determined 72 h later by luciferase assays and compared to DMSO-treated controls. Mean values of three independent experiments each with quadruplicate measurements including the standard deviation are shown.\nHuh7-Lunet/CD81 cells were transfected with Jc1 RNA and seeded on a 6-well plate. Compounds were added 4 h later. At 48 h after transfection, cell culture supernatant was harvested and used for measuring the extracellular core amount. Cells were washed once with PBS, scraped and centrifuged for 5 min at 1000×g. Cell pellets were resuspended in 500 μl fresh culture fluid and subjected to three cycles of freeze and thaw using liquid nitrogen and a 37° C. thermo block. Samples were than centrifuged at 10,000×g for 10 min to remove cell debris and the core amount was measured (intracellular core protein) using the […] […]\nTo determine whether BJ486K affects virus assembly or release we transfected Huh7-Lunet/CD81 cells with Jc1 RNA and quantified intra- and extracellular levels of core protein 48 h after transfection (FIG. 2B)."}, "JcR-2a virus particles": {"tested_on": "JcR-2a virus particles", "experiment": "Antiviral activity against early steps of HCV cell entry, synchronized JcR-2a infection (FIG. 3)", "format": "cell-based", "settings": "heparin 50 μg/ml, JS-81 2 μg/ml; inhibitor present 4 h", "method": "FIG. 3: BJ486K inhibits cell entry post virus attachment. The design of the JcR-2a reporter virus construct is given at the top. Huh7-Lunet/CD81 cells were inoculated with concentrated JcR-2a particles at 4° C. for 60 minutes. Subsequently, unbound virus particles were washed away and cells were shifted to 37° C. to permit synchronized cell entry. According to the 8 experimental protocols depicted in the middle, various cell entry inhibitors including heparin (50 μg/ml), ITX5061 (10 μM), CD81-specific antibody JS-81 (2 μg/ml) and BJ486K (20 μM) were either present during inoculation (protocol 1) or were added at different time points after inoculation (protocols 2 to 8). In each case, inhibitor was present for 4 h (dashed line) and was then washed away. Efficiency of cell entry was determined 48 h post inoculation by determination of luciferase activity and is expressed relative to control infections conducted in the presence of solvent alone (DMSO). Mean values of three independent experiments each with quadruplicate measurements including the standard deviation are shown.\nJcR-2a virus particles were incubated with Huh7-Lunet/CD81 cells seeded as described above for 1 h at 4° C. to synchronize cell entry. Various inhibitors including 50 μg/ml heparin (Sigma-Aldrich), CD81-specific antibody JS-81 (2 μg/ml; Becton Dickinson), ITX 5061 (10 μM) or BJ486K (20 μM), were added during virus inoculation (protocol 1) or at indicated time points after virus inoculation (protocol 2-8). After 4 h inhibitor treatment, medium was changed to fresh culture fluid without inhibitors and the cells were lysed 48 h after inoculation as described above. Efficiency of infection was determined by luciferase assay using a tube luminometer (Lumat LB9507, Berthold, Freiburg, Germany).\nTo resolve which step of HCV cell entry is inhibited by BJ486K, we assessed its antiviral activity when administered at different time points during the early phase of infection. To this end, Huh7-Lunet/CD81 cells were inoculated for one hour at 4° C. with a reporter virus prepared in the absence of drugs. […]"}}, "note": "Entries after “also recorded” stand apart in the source; their conditions may differ.", "data": [{"compound": "CCN(CC)CCCC(C)Nc1ccnc2cc(Cl)ccc12", "note": "(stereo not drawn) [Chloroquine, chloroquine]", "values": [{"measurement": "cytotoxicity", "setting": "Huh7.5 F-Luc cells", "result": "no cytotoxicity detectable"}, {"measurement": "cytotoxicity", "setting": "Huh7.5 F-Luc cells; listed as chloroquine", "result": "no cytotoxicity"}, {"measurement": "anti-HCV effect", "setting": "JcR-2a virus", "result": "dose-dependent anti-HCV effect"}, {"measurement": "anti-HCV effect", "setting": "JcR-2a virus; listed as chloroquine", "result": "dose-dependent inhibition of HCV"}]}, {"compound": "COc1c(NC(=O)C(=O)c2ccc(OCCN3CCOCC3)c3ccccc23)cc(C(C)(C)C)cc1NS(C)(=O)=O", "note": "[ITX5061, reference compound]", "values": [{"measurement": "antiviral activity against G451R mutant compared with wild type", "setting": "[1]", "result": "resistant"}]}, {"compound": "COc1ccc(-c2cc(=O)c3c(OC)c(O)c(OC)cc3o2)cc1", "note": "[XM131, 6-Hydroxy-5,7-dimethoxy-2-(4-methoxy-phenyl)-chromen-4-one]", "values": [{"measurement": "Mg(II) complexation", "setting": "[2]", "result": "no absorption variation can be observed; also recorded: no Mg(II) complex is observed"}]}, {"compound": "O=C1C[C@@H](c2ccc(O)cc2)Oc2cc(O)cc(O)c21", "note": "[naringenin]", "values": [{"measurement": "reduction of extracellular levels of core protein", "setting": "Jc1", "result": "ca. 5 fold"}]}, {"compound": "C=C[C@H]1C[N@@]2CC[C@H]1C[C@@H]2[C@@H](O)c1ccnc2ccc(OC)cc12", "note": "[quinidine]", "values": [{"measurement": "reduction of extracellular levels of core protein", "setting": "Jc1", "result": "more than 100 fold"}]}, {"compound": "heparin [reference compound]", "values": [{"measurement": "inhibition of HCV entry by time of addition, in words", "setting": "JcR-2a virus particles", "result": "only interfered with HCV infection when present already during inoculation"}]}]}
